Assay [1] has as its system ALDH (aldehyde dehydrogenase; ALDH2). Nature of the assay: ALDH activity kit (Abcam), absorbance […] nm (NADH standard), Lineweaver-Burk. It is filed as biochemical, Citrus sinensis. As to conditions: no Effector 3; incubation 1 h; varied substrate acetaldehyde (Methods).
In assay [2] the test system is GH17 (Glycosyl Hydrolase family 17). Briefly: beta-glucosidase kit (MAK129), absorbance […] nm, Lineweaver-Burk. Format: biochemical, Citrus sinensis. The following applies: K-phosphate 100 mM, pH 6.5, 37°C, 20 min; no LasP235; substrate taken from Methods.

Consider `CC=O` [acetaldehyde], for which the Km in assay [1] came out at 2.13 mM.

Regarding `O=[N+]([O-])c1ccc(O[C@@H]2O[C@H](CO)[C@@H](O)[C@H](O)[C@H]2O)cc1` [p-nitrophenyl-β-D-glucopyranoside], the Km in assay [2] was 42 µM.

The record behind these values is PMC9108871 (Frontiers in Plant Science, 2022).
